From paper PMC8227856, “Antibacterial Activity of a Promising Antibacterial Agent: 22-(4-(2-(4-Nitrophenyl-piperazin-1-yl)-acetyl)-piperazin-1-yl)-22-deoxypleuromutilin” (Molecules, 2021)
In brackets after ≈: the same amount, converted by molar mass.

Tests used:
S. aureus ATCC 29213 [1] = assay: MIC, broth dilution micro-method; format: cell-based; settings: Staphylococcus aureus, ATCC29213, 24 h, MHB
Method: (§1) The MICs of NPDM against MRSA were determined by the broth dilution micro-method. Briefly, the stock solution of NPDM and the reference drug tiamulin were diluted by a two-fold serial dilution method with MHB in a 96-well plate to provide concentration ranges of 16~0.032 μg/mL. Then 100 μL of bacterial suspensions in log phase were diluted to 10^6 CFU/mL with MHB and were added to each well to make the final concentrations of the test compounds ranging from 8 to 0.016 μg/mL. The bacterial suspension (no drugs but solvent) was used as the positive control and MHB (no cultures) was used as the negative control. […] The MICs assay was carried out in triplicate.

[2] = tested on: S. aureus 144 (clinical strain); assay: MIC, broth dilution micro-method; format: cell-based; settings: Staphylococcus aureus, 24 h, MHB
Method: as §1

MRSA ATCC 43300 [3] = assay: MIC, broth dilution micro-method; format: cell-based; settings: Staphylococcus aureus, 24 h, MHB
Method: as §1

[4] = tested on: S. aureus AD3 (clinical strain); assay: MIC, broth dilution micro-method; format: cell-based; settings: Staphylococcus aureus, 24 h, MHB
Method: as §1

S. aureus ATCC 29213 [5] = assay: Time-kill assay; format: cell-based, Staphylococcus aureus
Method: (§2) The MRSA and S. aureus in the logarithmic phase were diluted to 10^6 CFU/mL with MHB. Then diverse concentrations of NPDM or tiamulin were added to the bacteria solution reaching the final concentration of 1 × MIC, 2 × MIC, 4 × MIC, and 8 × MIC, respectively. All bacterial inoculums were cultured at 37 °C with shaking. A total of 100 μL samples were taken from the subcultures at 0, 3, 6, 9, and 24 h, respectively, and continuously diluted 10-fold in sterile saline; then, 25 μL diluent was plated on the MHA plate. All plates were placed at 37 °C for 24 h. The total number of colonies on the plate was counted, and the results were expressed as log (CFU/mL).

MRSA ATCC 43300 [6] = assay: Time-kill assay; format: cell-based, Staphylococcus aureus
Method: as §2

MRSA ATCC 43300 [7] = assay: Post-antibiotic effect (PAE) assay; format: cell-based, Staphylococcus aureus
Method: The PAE was carried out as described in the literature. The MRSA was diluted to 10^6 CFU/mL in MHB. The NPDM or tiamulin was added into the bacteria solution at the final concentrations of 2 × MIC and 4 × MIC. Then all tubes were incubated at 37 °C for 1 h or 2 h. Each of the above inoculums was diluted 1000-fold with pre-warmed MHB to remove the test compounds and placed in a water bath at 37 °C immediately. One hundred microliters of suspension were taken from each culture, diluted 10-fold in sterile saline, and inoculated on MHA plates at 0, 1, 2, 4, and 6 h after inoculation. The total number comprising the colonies was counted after incubation at 37 °C for 20 h. The PAE was calculated referring to published methods. The experiment was performed in triplicate.

S. aureus ATCC 29213 [8] = assay: Neutropenic mouse thigh infection model; format: in vivo, Staphylococcus aureus; settings: 20 mg/kg i.v., neutropenic mice
Method: (§3) The mouse thigh infection model was performed as described in the literature with minor modifications. Briefly, female mice had induced neutropenia (neutrophil count ≤ 100/mm^3) by administered intraperitoneally cyclophosphamide on day 4 (150 mg/kg) and day 1 (100 mg/kg) before the experiment. A bacterial suspension of 0.1 mL (MRSA or S. aureus) containing approximately 10^7 CFU/mL microorganism was injected into the posterior thigh of mice to establish infection. Two hours after infection, mice were intravenously injected with NPDM or tiamulin at 20 mg/kg. After 24 h, thighs (six per group) were collected upon euthanasia. Then, thighs were weighed and homogenized with sterile saline. Tissue homogenate was continuously diluted 10-fold and plated on MHA plates for colony counts. SPSS 19 software was used for statistical analysis and t-tests.

MRSA ATCC 43300 [9] = assay: Neutropenic mouse thigh infection model; format: in vivo, Staphylococcus aureus; settings: 20 mg/kg i.v., neutropenic mice
Method: as §3

MRSA ATCC 43300 [10] = assay: MBC assay; format: cell-based, Staphylococcus aureus; settings: Staphylococcus aureus; MRSA ATCC 43300
Method: (§4) Determination of MBCs refers to the minimum concentrations of antibacterial agents required to kill 99.9% of the test microorganisms after 24 h of incubation. After obtaining the MICs value, the 96-well plates were placed at 37 °C and incubated for 24 h. One hundred microliter aliquots of the bacterial suspensions were taken from the wells without visible bacterial growth and then plated onto MHA plates. […] The MBC assay was conducted at least in triplicate.

BRL-3A cells = assay: Cytotoxicity, MTT assay; format: cell-based; settings: Rattus norvegicus; BRL-3A cells, MTT, 16 h incubation; read-out: 50% inhibition concentration (IC50), cell viability
Method: The cytotoxicity of NPDM was evaluated by the MTT assay as previously reported. Briefly, the medium containing 1 × 10^5 BRL-3A cells per 1 mL was seeded into a 96-well plate at 100 μL per well. After incubation for 48 h, media were replaced with 100 μL of serial dilutions of test compounds and incubated for 16 h. The absorbance (A) was measured at 490 nm by an automatic microplate reader (BIO-TEK Instrument Inc., Winooski, VT, USA). The cell viability was calculated according to Equation (1):(1) Cell viability (%) = (Asimple−Anegative)/(Apositive−Anegative)×100%
A graph was constructed by plotting the inhibition percentage versus various concentrations of NPDM and tiamulin, from which the IC50 of NPDM or tiamulin was calculated. The measurement was repeated in triplicate.

MRSA ATCC 43300 [11] = assay: Galleria mellonella infection model; format: in vivo; settings: Staphylococcus aureus, 120 h; Galleria mellonella larvae infected with MRSA, survival over 5 days
Method: The survival rate of Galleria mellonella was determined according to the literature with some modifications. Larvae of Galleria mellonella (16 per group) were injected with 10 μL of 10^8 CFU/mL MRSA inoculum into the last right proleg. Two hours after infection, larvae were injected with 10 μL of various doses (17.14, 25.71, 37.14, 57.14, and 85.71 mg/kg) of NPDM or tiamulin (used as reference drug) into the last left proleg. The larvae were maintained at 37 °C. Survival of the larvae was recorded daily for 5 days, and the ED50 was calculated.

S. aureus ATCC 29213 [12] = assay: MBC assay; format: cell-based; settings: Staphylococcus aureus, ATCC29213
Method: as §4

[13] = tested on: S. aureus 144 (clinical strain); assay: MBC assay; format: cell-based; settings: Staphylococcus aureus
Method: as §4

[14] = tested on: S. aureus AD3 (clinical strain); assay: MBC assay; format: cell-based; settings: Staphylococcus aureus
Method: as §4

`C=C[C@]1(C)C[C@@H](OC(=O)CSCCN(CC)CC)[C@]2(C)[C@H](C)CC[C@]3(CCC(=O)[C@H]32)[C@@H](C)[C@@H]1O` [Tiamulin, reference compound] was tested, and the MIC (S. aureus ATCC 29213 [1]) was 0.5 µg/mL (≈ 1.01 µM), the MIC [2] was 0.5 µg/mL (≈ 1.01 µM) and the MIC (MRSA ATCC 43300 [3]) was 0.5 µg/mL (≈ 1.01 µM). For the same compound, the MIC [4] was 0.5 µg/mL (≈ 1.01 µM), the “Concentration showing bacteriostatic effect” value (S. aureus ATCC 29213 [5]) was ≥ 2 × MIC and the “Time-kill activity at 2 × MIC” value (MRSA ATCC 43300 [6]; 2 × MIC) was “bacteriostatic activity with a rebound growth”. For the same compound, the “Concentration showing bactericidal activity (≥3 log10 CFU/mL decrease)” value (MRSA ATCC 43300 [6]; after incubation for 24 h) was ≥ 4 × MIC, the PAE (MRSA ATCC 43300 [7]; 2 × MIC, exposure for 1 h) was 1.53 h and the PAE (MRSA ATCC 43300 [7]; 2 × MIC, exposure for 2 h) was 1.65 h. For the same compound, the PAE (MRSA ATCC 43300 [7]; 4 × MIC, exposure for 1 h) was 1.90 h, the PAE (MRSA ATCC 43300 [7]; 4 × MIC, exposure for 2 h) was 2.04 h and the “Average amount of S. aureus inoculum in thighs” value (S. aureus ATCC 29213 [8]; 24 h after treatment) was “(2.00 ± 1.21) × 10^8 CFU”. The “Reduction of mean bacterial counts in thighs vs untreated group” value (S. aureus ATCC 29213 [8]; S. aureus, 24 h) was ~ 0.68 log CFU/mL, the “Reduction of mean MRSA counts in thighs vs untreated group” value (MRSA ATCC 43300 [9]; 24 h) was ~ 1.15 log CFU/mL and the “Average amount of MRSA inoculum in thighs” value (MRSA ATCC 43300 [9]; 24 h after treatment) was “(2.64 ± 1.95) × 10^8 CFU”. The MBC (MRSA ATCC 43300 [10]) was 0.5 µg/mL (≈ 1.01 µM), the IC50 (BRL-3A cells) was 13.1 µg/mL (≈ 26.5 µM) and the ED50 (MRSA ATCC 43300 [11]) was 75.7 mg/kg. For the same compound, the MBC (S. aureus ATCC 29213 [12]) was 0.5 µg/mL (≈ 1.01 µM), the MBC [13] was 2 µg/mL (≈ 4.05 µM) and the MBC [14] was 2 µg/mL (≈ 4.05 µM).
